ChEMBL document CHEMBL1201862, “PubChem BioAssay data set” (2004)
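96-well plates; 48 h exposure; 5 concentrations. Endpoints by linear interpolation between flanking doses. Not reached: highest tested concentration assigned. The concentration for 50% growth inhibition is given as GI50.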 Activity calls are given as the source filed them. Cut-off read from the data, not from the text of the source: active = GI50 up to about 1.1 µM and inactive = higher.

What was measured:
Test in all cases: inhibition of tumour cell growth, NCI panel, 48 h
[1] = tested on: 786-0
[2] = tested on: A498
[3] = tested on: A549
[4] = tested on: ACHN
[5] = tested on: BT-549
[6] = tested on: CAKI-1
[7] = tested on: CCRF-CEM
[8] = tested on: COLO 205
[9] = tested on: DU-145
[10] = tested on: EKVX
[11] = tested on: HCC 2998
[12] = tested on: HCT-116
[13] = tested on: HCT-15
[14] = tested on: HOP-62
[15] = tested on: HT-29
[16] = tested on: IGROV-1
[17] = tested on: K562
[18] = tested on: KM12
[19] = tested on: LOX IMVI
[20] = tested on: M14
[21] = tested on: MCF7
[22] = tested on: MDA-MB-231
[23] = tested on: MDA-MB-435
[24] = tested on: MDA-N
[25] = tested on: MOLT-4
[26] = tested on: Malme-3M
[27] = tested on: NCI-H226
[28] = tested on: NCI-H23
[29] = tested on: NCI-H460
[30] = tested on: NCI-H522
[31] = tested on: NCI/ADR-RES
[32] = tested on: OVCAR-4
[33] = tested on: OVCAR-5
[34] = tested on: OVCAR-8
[35] = tested on: PC-3
[36] = tested on: RPMI-8226
[37] = tested on: RXF 393
[38] = tested on: SF-268
[39] = tested on: SF-295
[40] = tested on: SF-539
[41] = tested on: SK-MEL-28
[42] = tested on: SK-MEL-2
[43] = tested on: SK-MEL-5
[44] = tested on: SK-OV-3
[45] = tested on: SN12C
[46] = tested on: SNB-19
[47] = tested on: SNB-75
[48] = tested on: SR
[49] = tested on: SW-620
[50] = tested on: T47D
[51] = tested on: TK-10
[52] = tested on: U-251
[53] = tested on: UACC-257
[54] = tested on: UACC-62
[55] = tested on: UO-31
[56] = tested on: HL-60
[57] = tested on: HOP-92
[58] = tested on: Hs-578T
[59] = tested on: OVCAR-3

C=C(C(=O)OC)[C@@H]1C[C@@H](OC(C)=O)C2=C[C@H](C[C@@]3(C)O[C@@H]3C3=CC(C)=C(O3)[C@H]1OC(C)=O)OC2=O [BIPINNATIN I]
GI50 [1]: 14.7 µM (inactive) | GI50 [2]: 16.9 µM (inactive) | GI50 [3]: 40.7 µM (inactive) | GI50 [4]: 16.5 µM (inactive) | GI50 [5]: 12.9 µM (inactive) | GI50 [6]: 7.74 µM (inactive) | GI50 [7]: 0.0429 µM (active) | GI50 [8]: 10.8 µM (inactive) | GI50 [9]: 32.9 µM (inactive) | GI50 [10]: 18.4 µM (inactive) | GI50 [11]: 20.4 µM (inactive) | GI50 [12]: 10.4 µM (inactive) | GI50 [13]: 17.5 µM | GI50 [14]: 22.7 µM (inactive) | GI50 [15]: 6.24 µM (inactive) | GI50 [16]: 15.3 µM (inactive) | GI50 [17]: 6.84 µM (inactive) | GI50 [18]: 19.8 µM (inactive) | GI50 [19]: 16.3 µM (inactive) | GI50 [20]: 14.8 µM (inactive) | GI50 [21]: 8.28 µM (inactive) | GI50 [22]: 20.9 µM (inactive) | GI50 [23]: 16.8 µM (inactive) | GI50 [24]: 19.4 µM (inactive) | GI50 [25]: 2.16 µM (inactive) | GI50 [26]: 13.3 µM (inactive) | GI50 [27]: 90.8 µM (inactive) | GI50 [28]: 14.5 µM (inactive) | GI50 [29]: 23.6 µM (inactive) | GI50 [30]: 2.59 µM (inactive) | GI50 [31]: 32.9 µM (inactive) | GI50 [32]: 35.2 µM (inactive) | GI50 [33]: 17.9 µM (inactive) | GI50 [34]: 17.3 µM (inactive) | GI50 [35]: 25.2 µM (inactive) | GI50 [36]: 5.75 µM (inactive) | GI50 [37]: 12 µM (inactive) | GI50 [38]: 36.1 µM (inactive) | GI50 [39]: 27 µM (inactive) | GI50 [40]: 31.4 µM (inactive) | GI50 [41]: 16.2 µM (inactive) | GI50 [42]: 31 µM (inactive) | GI50 [43]: 15.2 µM (inactive) | GI50 [44]: 37.5 µM (inactive) | GI50 [45]: 22.4 µM (inactive) | GI50 [46]: 47.6 µM (inactive) | GI50 [47]: 26.1 µM (inactive) | GI50 [48]: 9.38 µM (inactive) | GI50 [49]: 4.71 µM (inactive) | GI50 [50]: 12.7 µM (inactive) | GI50 [51]: 16 µM (inactive) | GI50 [52]: 23.1 µM (inactive) | GI50 [53]: 18.2 µM (inactive) | GI50 [54]: 18.4 µM (inactive) | GI50 [55]: 16 µM (inactive)

CSc1nc(Cl)c2c(n1)Sc1ncnn1C2O (stereo not given)
GI50 [1]: 2.66 µM (inactive) | GI50 [2]: 20 µM (inactive) | GI50 [3]: 19.8 µM (inactive) | GI50 [4]: 4.29 µM (inactive) | GI50 [5]: 11.4 µM (inactive) | GI50 [6]: 12.7 µM (inactive) | GI50 [7]: 1.56 µM (inactive) | GI50 [8]: 0.843 µM (active) | GI50 [9]: 7.08 µM (inactive) | GI50 [10]: 17.2 µM (inactive) | GI50 [11]: 13.6 µM (inactive) | GI50 [12]: 5.12 µM (inactive) | GI50 [13]: 4.37 µM | GI50 [56]: 0.0547 µM (active) | GI50 [14]: 21.8 µM (inactive) | GI50 [57]: 12.6 µM (inactive) | GI50 [15]: 12.9 µM (inactive) | GI50 [58]: 5.09 µM (inactive) | GI50 [16]: 18.9 µM (inactive) | GI50 [17]: 3.62 µM (inactive) | GI50 [19]: 6.37 µM (inactive) | GI50 [20]: 14.3 µM (inactive) | GI50 [21]: 3.83 µM (inactive) | GI50 [22]: 16.1 µM (inactive) | GI50 [23]: 4.57 µM (inactive) | GI50 [24]: 7.13 µM (inactive) | GI50 [25]: 6.7 µM (inactive) | GI50 [26]: 3.18 µM (inactive) | GI50 [28]: 14.2 µM (inactive) | GI50 [29]: 21 µM (inactive) | GI50 [30]: 2.43 µM (inactive) | GI50 [31]: 25.9 µM (inactive) | GI50 [59]: 7.31 µM (inactive) | GI50 [32]: 15 µM (inactive) | GI50 [33]: 17.7 µM (inactive) | GI50 [34]: 2.82 µM (inactive) | GI50 [35]: 13.6 µM (inactive) | GI50 [37]: 2.58 µM (inactive) | GI50 [38]: 6.61 µM (inactive) | GI50 [40]: 0.318 µM (active) | GI50 [41]: 29.2 µM (inactive) | GI50 [42]: 17.4 µM (inactive) | GI50 [44]: 27.3 µM (inactive) | GI50 [45]: 11 µM (inactive) | GI50 [46]: 28 µM (inactive) | GI50 [48]: 2.86 µM (inactive) | GI50 [49]: 2.88 µM (inactive) | GI50 [51]: 17.2 µM (inactive) | GI50 [52]: 14.9 µM (inactive) | GI50 [53]: 19.5 µM (inactive) | GI50 [54]: 12.6 µM (inactive) | GI50 [55]: 2.55 µM (inactive)

COc1ccc(NC(=S)c2ccc(CN3CCCCC3)s2)cc1
GI50 [1]: 17.8 µM (inactive) | GI50 [2]: 16.2 µM (inactive) | GI50 [3]: 20.3 µM (inactive) | GI50 [4]: 31 µM (inactive) | GI50 [5]: 17 µM (inactive) | GI50 [6]: 27.9 µM (inactive) | GI50 [7]: 14.8 µM (inactive) | GI50 [8]: 16.2 µM (inactive) | GI50 [9]: 38.2 µM (inactive) | GI50 [10]: 18.8 µM (inactive) | GI50 [11]: 16.6 µM (inactive) | GI50 [12]: 16.9 µM (inactive) | GI50 [13]: 12.8 µM | GI50 [56]: 14.3 µM (inactive) | GI50 [14]: 20.6 µM (inactive) | GI50 [15]: 5.46 µM (inactive) | GI50 [58]: 12.6 µM (inactive) | GI50 [16]: 22.8 µM (inactive) | GI50 [17]: 12.5 µM (inactive) | GI50 [18]: 17.7 µM (inactive) | GI50 [19]: 18.1 µM (inactive) | GI50 [20]: 16.7 µM (inactive) | GI50 [21]: 17 µM (inactive) | GI50 [23]: 19.6 µM (inactive) | GI50 [24]: 18.5 µM (inactive) | GI50 [25]: 20.1 µM (inactive) | GI50 [26]: 17.5 µM (inactive) | GI50 [28]: 12.5 µM (inactive) | GI50 [29]: 17.5 µM (inactive) | GI50 [30]: 14.8 µM (inactive) | GI50 [31]: 23 µM (inactive) | GI50 [59]: 33.6 µM (inactive) | GI50 [32]: 29 µM (inactive) | GI50 [33]: 16.4 µM (inactive) | GI50 [34]: 17.9 µM (inactive) | GI50 [35]: 25.6 µM (inactive) | GI50 [36]: 23.4 µM (inactive) | GI50 [38]: 18 µM (inactive) | GI50 [39]: 18.3 µM (inactive) | GI50 [40]: 43.9 µM (inactive) | GI50 [41]: 17.3 µM (inactive) | GI50 [42]: 19.4 µM (inactive) | GI50 [43]: 14.3 µM (inactive) | GI50 [44]: 16.4 µM (inactive) | GI50 [45]: 47 µM (inactive) | GI50 [46]: 21.3 µM (inactive) | GI50 [48]: 16.8 µM (inactive) | GI50 [49]: 19.4 µM (inactive) | GI50 [50]: 19.8 µM (inactive) | GI50 [52]: 17.1 µM (inactive) | GI50 [53]: 16.6 µM (inactive) | GI50 [54]: 17.1 µM (inactive) | GI50 [55]: 18.4 µM (inactive)
